Measurements taken from US20180038865A1, “CD9 AS A THERAPEUTIC TARGET FOR HEMATOLOGIC MALIGNANCIES” (The Chinese and Knowledge Transfer Services, priority 2016, published 2018).

Columns and labels:
Assay in all cases: Apoptosis assay (Annexin V/7-AAD), vincristine, monoculture or stromal co-culture
Type in all cases: cell-based, human
697 cells = settings: vincristine 12.5 nM, 3 days
Procedure: (§1) […]: In vitro and in vivo effects of CD9 antibody on chemosensitivity of B-ALL cells. (FIG. 4A) B-ALL cell lines were treated with vincristine (VCR, 12.5 nM) for 3 days in monoculture or stromal co-culture. Apoptosis was monitored by Annexin V/7-AAD staining (n=4). (FIG. 4B) 697 cells were treated with VCR (12.5 nM) in stromal co-cultures for 3 days, in the presence of control IgG or anti-CD9 (ALB6, 10 μg/mL), and measured for apoptosis (n=4). (FIG. 4C) NOD/SCID mice were transplanted with 697 cells and treated with IgG alone, anti-CD9 alone (ALB6, 20 μg/mouse), IgG+VCR (0.8 mg/kg) or anti-CD9 + VCR. Antibodies and VCR were given twice a week for 2 weeks. Animal survival was analyzed (4-5 mice/group). Data are means±SEM. Statistics: (A and B) two-tailed, paired Student's t-test, (FIG. 4C) log-rank test. *P<0.05, **P<0.01.
(§2) B-ALL cell lines (1×10^5) were cultured with or without monolayers of BM stromal cells, and exposed to 10 μg/mL of control IgG or CD9 antibody (ALB6). Cells were then treated with vincristine (12.5 nM; Sigma Aldrich) for 3 days at 37° C. Apoptotic cell death was monitored using the Annexin V/7-AAD Apoptosis Detection Kit (BD Biosciences).

RS4;11 = settings: vincristine 12.5 nM, 3 days
Procedure: as §1, §2

SUP-B15 = settings: vincristine 12.5 nM, 3 days
Procedure: as §1, §2

Reh cells = settings: vincristine 12.5 nM, 3 days; CD9low Reh
Procedure: as §1, §2

With `CC[C@]1(O)C[C@H]2CN(CCc3c([nH]c4ccccc34)[C@@](C(=O)OC)(c3cc4c(cc3OC)N(C=O)[C@H]3[C@@](O)(C(=O)OC)[C@H](OC(C)=O)[C@]5(CC)C=CCN6CC[C@]43[C@@H]65)C2)C1` [vincristine] the “vincristine-mediated apoptotic cell death, stromal co-culture vs monoculture” value (697 cells) was “reduced”, the “vincristine-mediated apoptotic cell death, stromal co-culture vs monoculture” value (RS4;11) was “reduced” and the “vincristine-mediated apoptotic cell death, stromal co-culture vs monoculture” value (SUP-B15) was “reduced”. For the same molecule, the “protective effect of stromal cells against vincristine-mediated apoptotic cell death” value (Reh cells) was “absent”.
